ChEMBL document CHEMBL4190385, “Benzofuran-pyran hybrids: A new class of potential bone anabolic agents” (Bioorg Med Chem Lett, 2018)
The source made the active and inactive calls. The calls are words filed in the database; no cut-off is given here.

Tests used:
Calvarial osteoblast [1] = assay: Stimulation of mineralization in rat calvarial osteoblasts assessed as increase in calcium nodules at 100 pM by Alizarin red S staining based photography; type: functional, cell-based
Calvarial osteoblast [2] = assay: Stimulation of osteoblast differentiation in rat calvarial osteoblasts assessed as increase in ALP activity at 1 pM to 100 uM using p-nitrophenylphosphate substrate incubated for 48 hrs by colorimetry; type: functional, cell-based
Calvarial osteoblast [3] = assay: Cytotoxicity in rat calvarial osteoblasts assessed as reduction in cell viability at 1 pM to 1 uM incubated for 48 hrs by MTT assay; type: cell-based
Rattus norvegicus [4] = species on record: Rattus norvegicus; assay: Stimulation of mineralization in Sprague-Dawley rat bone marrow stromal cells assessed as increase in calcium nodules at 1 uM incubated for 18 days hrs by Alizarin red S staining based photography; type: functional
[5] = Increase in Runx-2 mRNA expression in Sprague-Dawley rat bone marrow stromal cells at 10 nM incubated for 7 days hrs by qPCR method; type: functional
Calvarial osteoblast [6] = assay: Increase in BMP2 mRNA expression in rat calvarial osteoblasts at 10 nM incubated for 72 hrs by qPCR method; type: functional
[7] = Increase in BMP2 mRNA expression in Sprague-Dawley rat bone marrow stromal cells at 10 nM incubated for 7 days hrs by qPCR method; type: functional
Calvarial osteoblast [8] = assay: Increase in COL1 mRNA expression in rat calvarial osteoblasts at 10 nM incubated for 72 hrs by qPCR method; type: functional
[9] = Increase in BMP2 mRNA expression in Sprague-Dawley rat bone marrow stromal cells at 1 uM incubated for 7 days hrs by qPCR method; type: functional
[10] = Increase in Osx mRNA expression in Sprague-Dawley rat bone marrow stromal cells at 10 nM incubated for 7 days hrs by qPCR method; type: functional
Rattus norvegicus [11] = species on record: Rattus norvegicus; assay: Stimulation of mineralization in Sprague-Dawley rat bone marrow stromal cells assessed as increase in calcium nodules at 10 nM incubated for 18 days hrs by Alizarin red S staining based photography; type: functional
Calvarial osteoblast [12] = assay: Increase in Runx-2 mRNA expression in rat calvarial osteoblasts at 10 nM incubated for 72 hrs by qPCR method; type: functional
Calvarial osteoblast [13] = assay: Stimulation of osteoblast differentiation in rat calvarial osteoblasts assessed as increase in ALP activity at 100 nM using p-nitrophenylphosphate substrate incubated for 48 hrs by colorimetry; type: functional, cell-based
Calvarial osteoblast [14] = assay: Stimulation of mineralization in rat calvarial osteoblasts assessed as increase in calcium nodules at 10 nM by Alizarin red S staining based photography; type: functional, cell-based
Calvarial osteoblast [15] = assay: Stimulation of mineralization in rat calvarial osteoblasts assessed as increase in calcium nodules at 10 pM by Alizarin red S staining based photography; type: functional, cell-based
Calvarial osteoblast [16] = assay: Stimulation of osteoblast differentiation in rat calvarial osteoblasts assessed as increase in ALP activity at 1 uM using p-nitrophenylphosphate substrate incubated for 48 hrs by colorimetry; type: functional, cell-based
Calvarial osteoblast [17] = assay: Stimulation of mineralization in rat calvarial osteoblasts assessed as increase in calcium nodules at 1 uM by Alizarin red S staining based photography; type: functional, cell-based

SMILES | Activity (Calvarial osteoblast [1]) | Activity (Calvarial osteoblast [2]) | Activity (Calvarial osteoblast [3]) | Activity (Calvarial osteoblast [14]) | also measured
COc1ccc(C(=O)c2cc3cc(C4C(C#N)=C(N)OC5=C4C(=O)CC(C)(C)C5)cc(C(C)(C)C)c3o2)cc1 (centres undefined) | inactive | Active | Non-Toxic | – | –
CCc1cc(C2C(C#N)=C(N)OC3=C2C(=O)CC(C)(C)C3)cc2cc(C(=O)c3ccc(OC)cc3)oc12 (centres undefined) | inactive | Active | Non-Toxic | – | –
COc1ccc(C(=O)c2cc3cc(C4C(C#N)=C(N)OC5=C4C(=O)CC(C)(C)C5)cc(C)c3o2)cc1 (centres undefined) | – | Active | Non-Toxic | Active | Activity (Rattus norvegicus [4]): Active; fold change (FC) [5]: 2; fold change (FC) (Calvarial osteoblast [6]): 2.2; fold change (FC) [7]: 2.8; fold change (FC) (Calvarial osteoblast [8]): 1.8; fold change (FC) [9]: 1.8; fold change (FC) [10]: 3; Activity (Rattus norvegicus [11]): Active; fold change (FC) (Calvarial osteoblast [12]): 2.4; Activity (Calvarial osteoblast [13]): Active
CC1(C)CC(=O)C2=C(C1)OC(N)=C(C#N)C2c1cc(C(C)(C)C)c2oc(C(=O)c3ccc(Cl)cc3)cc2c1 (centres undefined) | – | Active | Non-Toxic | – | Activity (Calvarial osteoblast [15]): inactive
Cc1ccc(C(=O)c2cc3cc(C4C(C#N)=C(N)OC5=C4C(=O)CC(C)(C)C5)cc(C)c3o2)cc1 (centres undefined) | – | Active | Non-Toxic | inactive | Activity (Calvarial osteoblast [16]): Active
Cc1ccc(C(=O)c2cc3cc(C4C(C#N)=C(N)OC5=C4C(=O)CC(C)(C)C5)cc(C(C)(C)C)c3o2)cc1 (centres undefined) | – | Active | Non-Toxic | – | Activity (Calvarial osteoblast [17]): Active
